Consider 24 compounds from patent US10689414B2 (Agios Pharmaceuticals, Inc., priority 2013, dated 2020).

The subject of this experiment is U87MG cells. The experiment is described as follows: Cellular assay, inhibition of 2-HG production in U87MG cells. It counts as cell-based. Conditions: Homo sapiens, U-87 MG, 48 h. Summed up: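 HT1080 or U87MG cells (U87MG kept with 500 ug/mL G418) seeded at 5000 cells/well and treated with compound at 0.2% final DMSO. Incubated 48 h at 37 °C. 2-HG inhibition determined by LC-MS. Viability read by CellTiter-Glo luminescence at 72 h post-dose.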

Broadly, the IC50 is the concentration at which inhibition is half-maximal. A high value points to weaker potency in that assay. In the case of `CN(C)S(=O)(=O)c1cccc(N(C(=O)[C@@H]2CCC(=O)N2c2cc(C#N)ccn2)[C@H](C(=O)NC2CC(F)(F)C2)c2ccccc2Cl)c1` [Compound 156, (S)—N—((S)-1-(2-Chlorophenyl)-2-(3,3-difluorocyclobutylamino)-2-oxoethyl)-1-(4-cyanopyri-din-2-yl)-N-(3-(N,N-dimethylsulfamoyl)phenyl)-5-oxopyrrolidine-2-carboxamide], the half-inhibitory concentration (IC50) was < 100 nM.

Consider `CNS(=O)(=O)c1cccc(N(C(=O)[C@@H]2CCC(=O)N2c2cc(C#N)ccn2)[C@H](C(=O)NC2CC(F)(F)C2)c2ccccc2Cl)c1` [Compound 157], for which the IC50 is < 100 nM.

Take `N#Cc1ccnc(N2C(=O)CC[C@H]2C(=O)N(c2cc(F)cc(S(N)(=O)=O)c2)[C@H](C(=O)NC2CC(F)(F)C2)c2ccccc2Cl)c1` [Compound 158, (2S)—N-(1-(2-chlorophenyl)-2-(3,3-difluorocyclobutylamino)-2-oxo-ethyl)-1-(4-cyanopyridin-2-yl)-N-(3-fluoro-5-sulfamoylphenyl)-5-oxopyrrolidine-2-carboxamide]: the IC50 is < 100 nM.

Regarding `CS(=O)(=O)Nc1cccc(N(C(=O)[C@@H]2CCC(=O)N2c2cc(C#N)ccn2)[C@H](C(=O)NC2CC(F)(F)C2)c2ccccc2Cl)c1` [Compound 159, (S)—N—((S)-1-(2-Chlorophenyl)-2-(3,3-difluorocyclobutylamino)-2-oxoethyl)-1-(4-cyanopyridin-2-yl)-N-(3-(methylsulfonamido)phenyl)-5-oxopyrrolidine-2-carboxamide], the IC50 is < 100 nM.

In the case of `N#Cc1ccnc(N2C(=O)CC[C@H]2C(=O)N(c2cccc(CCO)c2)[C@H](C(=O)NC2CC(F)(F)C2)c2ccccc2Cl)c1` [Compound 160, (S)—N—((S)-1-(2-Chlorophenyl)-2-((3,3-difluorocyclobutyl)amino)-2-oxoethyl)-1-(4-cyanopyri-din-2-yl)-N-(3-(2-hydroxyethyl)phenyl)-5-oxopyrrolidine-2-carboxamide], the concentration for half-maximal inhibition (IC50) is < 100 nM.

In the case of `CN(C)c1cccc(N(C(=O)[C@@H]2CCC(=O)N2c2cc(C#N)ccn2)[C@H](C(=O)NC2CC(F)(F)C2)c2ccccc2Cl)c1` [Compound 161, (S)—N—((S)-1-(2-Chlorophenyl)-2-(3,3-difluorocyclobutylamino)-2-oxoethyl)-1-(4-cyanopyri-din-2-yl)-N-(3-(dimethylamino)phenyl)-5-oxopyrrolidine-2-carboxamide], the concentration for half-maximal inhibition (IC50) was < 100 nM.

With `N#Cc1cnc(N2C(=O)CC[C@H]2C(=O)N(c2cc(F)cc(F)c2)[C@H](C(=O)NC2CC(F)(F)C2)c2ccccc2Cl)o1` [Compound 162, (S)—N—((S)-1-(2-chlorophenyl)-2-((3,3-difluorocyclobutyl)amino)-2-oxoethyl)-1-(5-cyanooxa-zol-2-yl)-N-(3,5-difluorophenyl)-5-oxopyrrolidine-2-carboxamide], the IC50 was < 100 nM.

Turning to `[2H]c1c([2H])c([2H])c([C@@H](C(=O)NC2CC(F)(F)C2)N(C(=O)[C@@H]2CCC(=O)N2c2cc(C#N)ccn2)c2cc(F)cc(F)c2)c(Cl)c1[2H]` [Compound 163], the half-maximal inhibitory concentration (IC50) was < 100 nM.

Turning to `COc1cccc(N(C(=O)[C@@H]2CCC(=O)N2c2nccc(C#N)n2)[C@H](C(=O)NC2CC(F)(F)C2)c2ccccc2Cl)c1` [Compound 164, (S)—N—((S)-1-(2-Chlorophenyl)-2-(3,3-difluorocyclobutyl-amino)-2-oxoethyl)-1-(4-cyanopyrimidin-2-yl)-N-(3-methoxyphenyl)-5-oxopyrrolidine-2-carboxamide], the IC50 is < 100 nM.

As for `N#Cc1cccc(N(C(=O)[C@@H]2CCC(=O)N2c2cc(C#N)ccn2)[C@H](C(=O)NC2CCC(F)(F)CC2)c2ccccc2Cl)c1` [Compound 166, (S)—N—((S)-1-(2-Chlorophenyl)-2-((4,4-difluorocyclohexyl)amino)-2-oxoethyl)-N-(3-cyanophenyl)-1-(4-cyanopyridin-2-yl)-5-oxopyrrolidine-2-carboxamide], the IC50 is < 100 nM.

With `N#Cc1cccc(N(C(=O)[C@@H]2CCC(=O)N2c2nccc(C#N)n2)[C@H](C(=O)NC2CC(F)(F)C2)c2ccccc2Cl)c1` [Compound 167, (S)—N—((S)-1-(2-Chlorophenyl)-2-((3,3-difluorocyclobutyl)amino)-2-oxoethyl)-N-(3-cyanophenyl)-1-(4-cyanopyrimidin-2-yl)-5-oxopyrrolidine-2-carboxamide], the IC50 was < 100 nM.

On to `CS(=O)(=O)c1cc(F)cc(N(C(=O)[C@@H]2CCC(=O)N2c2nccc(C#N)n2)[C@H](C(=O)NC2CCC(F)(F)CC2)c2ccccc2Cl)c1` [Compound 168, (S)—N—((S)-1-(2-Chlorophenyl)-2-((4,4-difluorocyclohexyl)amino)-2-oxoethyl)-1-(4-cyanopyrimidin-2-yl)-N-(3-fluoro-5-(methylsulfonyl)phenyl)-5-oxopyrrolidine-2-carboxamide], for which the half-maximal inhibitory concentration (IC50) is < 100 nM.

As to `N#Cc1cccc(N(C(=O)[C@@H]2C[C@@H](O)C(=O)N2c2cc(C#N)ccn2)C(C(=O)NC2CC(F)(F)C2)c2ccccc2Cl)c1` (stereo partly drawn) [Compound 170, (2S,4R)—N-(1-(2-chlorophenyl)-2-((3,3-difluorocyclobutyl)amino)-2-oxoethyl)-N-(3-cyano-phenyl)-1-(4-cyanopyridin-2-yl)-4-hydroxy-5-oxopyrrolidine-2-carboxamide], the IC50 is < 100 nM.

As for `N#Cc1ccnc(N2C(=O)[C@@H](O)C[C@H]2C(=O)N(c2cc(F)cc(F)c2)[C@H](C(=O)NC2CC(F)(F)C2)c2ccccc2Cl)c1` [Compound 171, (2S,4S)—N—((S)-1-(2-Chlorophenyl)-2-((3,3-difluorocyclobutyl)amino)-2-oxoethyl)-1-(4-cyano-pyridin-2-yl)-N-(3,5-difluorophenyl)-4-hydroxy-5-oxopyrrolidine-2-carboxamide], the concentration for half-maximal inhibition (IC50) is < 100 nM.

In the case of `N#Cc1ccnc(N2C(=O)[C@@H](O)C[C@H]2C(=O)N(c2cccc(F)c2)[C@H](C(=O)NC2CCC(F)(F)CC2)c2ccccc2Cl)c1` [Compound 172, (2S,4S)—N—((S)-1-(2-Chlorophenyl)-2-((4,4-difluorocyclohexyl)amino)-2-oxoethyl)-1-(4-cyano-pyridin-2-yl)-N-(3-fluorophenyl)-4-hydroxy-5-oxopyrrolidine-2-carboxamide], the half-maximal inhibitory concentration (IC50) was < 100 nM.

As to `N#Cc1ccnc(N2C(=O)CC[C@H]2C(=O)N(c2cccc(C3CC3)c2)[C@H](C(=O)NC2CC(F)(F)C2)c2ccccc2Cl)c1` [Compound 173, (S)—N—((S)-1-(2-Chlorophenyl)-2-((3,3-difluorocyclobutyl)amino)-2-oxoethyl)-1-(4-cyanopyri-din-2-yl)-N-(3-cyclopropylphenyl)-5-oxopyrrolidine-2-carboxamide], the IC50 was < 100 nM.

Turning to `N#Cc1ccnc(N2C(=O)[C@@H](O)C[C@H]2C(=O)N(c2cc(F)cc(F)c2)[C@H](C(=O)NC2CCC(F)(F)CC2)c2ccccc2Cl)c1` [Compound 174, (2S,4S)—N—((S)-1-(2-Chlorophenyl)-2-((4,4-difluorocyclohexyl)amino)-2-oxoethyl)-1-(4-cyanopyridin-2-yl)-N-(3,5-difluorophenyl)-4-hydroxy-5-oxopyrrolidine-2-carboxamide], the half-inhibitory concentration (IC50) was < 100 nM.

As for `N#Cc1ccnc(N2C(=O)CC[C@H]2C(=O)N(c2ccc3[nH]ncc3c2)[C@H](C(=O)NC2CC(F)(F)C2)c2ccccc2Cl)c1` [Compound 175, (S)—N—((S)-1-(2-Chlorophenyl)-2-((3,3-difluorocyclobutyl)amino)-2-oxoethyl)-1-(4-cyanopyri-din-2-yl)-N-(1H-indazol-5-yl)-5-oxopyrrolidine-2-carboxamide], the half-maximal inhibitory concentration (IC50) was < 100 nM.

In the case of `N#Cc1ccnc(N2C(=O)CC[C@H]2C(=O)N(c2cncc(F)c2)[C@H](C(=O)NC2CC(F)(F)C2)c2ccccc2Cl)c1` [Compound 176, (S)—N—((S)-1-(2-Chlorophenyl)-2-(3,3-difluorocyclobutylamino)-2-oxoethyl)-1-(4-cyanopyridin-2-yl)-N-(5-fluoropyridin-3-yl)-5-oxopyrrolidine-2-carboxamide], the IC50 is < 100 nM.

In the case of `N#Cc1cc(F)cc(N(C(=O)[C@@H]2CCC(=O)N2c2cc(C#N)ccn2)[C@H](C(=O)NC2CC(F)(F)C2)c2ccccc2Cl)c1` [Compound 177, (S)—N—((S)-1-(2-Chlorophenyl)-2-(3,3-difluorocyclobutylamino)-2-oxoethyl)-N-(3-cyano-5-fluorophenyl)-1-(4-cyanopyridin-2-yl)-5-oxopyrrolidine-2-carboxamide], the half-inhibitory concentration (IC50) was < 100 nM.

In the case of `CC(C)(O)c1cccc(N(C(=O)[C@@H]2CCC(=O)N2c2cc(C#N)ccn2)[C@H](C(=O)NC2CC(F)(F)C2)c2ccccc2Cl)c1` [Compound 179, (S)—N—((S)-1-(2C)-2-((3,3-difluorocyclobutyl)amino)-2-oxoethyl)-1-(4-cyanopyridin-2-yl)-N-(3-(2-hydroxypropan-2-yl)phenyl)-5-oxopyrrolidine-2-carboxamide], the concentration for half-maximal inhibition (IC50) was < 100 nM.

As for `N#Cc1ccnc(N2C(=O)CC[C@H]2C(=O)N(c2cccc(OC(F)(F)F)c2)C(C(=O)NC2CC(F)(F)C2)c2ccccc2Cl)n1` (stereo partly drawn) [Compound 180, (2S)—N-(1-(2-Chlorophenyl)-2-((3,3-difluorocyclobutyl)amino)-2-oxoethyl)-1-(4-cyanopyrimidin-2-yl)-5-oxo-N-(3-(trifluoromethoxy)phenyl)pyrrolidine-2-carboxamide], the IC50 was < 100 nM.

For `N#Cc1ccnc(N2C(=O)CC[C@H]2C(=O)N(c2cccc(OC(F)F)c2)[C@H](C(=O)NC2CC(F)(F)C2)c2ccccc2Cl)c1` [Compound 181, (S)—N—((S)-1-(2-Chlorophenyl)-2-((3,3-difluorocyclobutyl)amino)-2-oxoethyl)-1-(4-cyanopyridin-2-yl)-N-(3-(difluoromethoxy)phenyl)-5-oxopyrrolidine-2-carboxamide], the half-maximal inhibitory concentration (IC50) was < 100 nM.

As to `N#Cc1ccnc(N2C(=O)CC[C@H]2C(=O)N(c2cccc(C3CC3)c2)[C@H](C(=O)NC2CC(F)(F)C2)c2ccccc2Cl)n1` [Compound 182, (S)—N—((S)-1-(2-Chlorophenyl)-2-((3,3-difluorocyclobutyl)amino)-2-oxoethyl)-1-(4-cyanopyri-midin-2-yl)-N-(3-cyclopropylphenyl)-5-oxopyrrolidine-2-carboxamide], the IC50 was < 100 nM.
